The record followed here is US20080182978A1, “ANTI-NGF ANTIBODIES AND METHODS USING SAME” (RINAT NEUROSCIENCE CORP, priority 2002, published 2008).

“Also recorded” adds a separate entry of the source.

Assay [1] deals with complete Freund's adjuvant (CFA)-induced chronic arthritis. Nature of the assay: CFA-induced chronic arthritis in rats, vocalization test (Example 7). The format is in vivo, rat. The source says:
The analgesic effects of anti-NGF antibody, 911 (see Hongo et al., Hybridoma 19(3):215-227 (2000)) in complete Freund's adjuvant (CFA)-induced chronic arthritis in rats were investigated using the vocalization test, in comparison with indomethacine used as reference substance.
Fifty (50) male Lewis rats (LEWIS LEW/Crl Ico) (Charles River Belgium) weighing 150 g to 220 g at the beginning of the experimental phase were included in this study. […]
On day 0 (D0), arthritis was induced in rats by intradermal injection into the tail of 0.05 ml of a Mycobacterium butyricum (Difco, USA) suspension in mineral oil (10 mg/ml). On day 14 (D14), arthritic rats were included in the study according to their ability to vocalize upon gentle flexion of the hindpaw and by their arthritis index, evaluated using an inflammation score for each hind and forepaw (see Kuzuna et al., Chem. Pharm. Bull. (Tokyo) 23:1184-1191 (1975); Pearson et al., Arthritis Rheum. 2:440-459 (1959)). Animals were scored based on the following criteria: Score 0: normal aspect; Score 1: erythema; Score 2: erythema with slight edema; Score 3: strong inflammation without ankylosis; Score 4: ankylosis. […]
Four groups of 10 rats each were included in the study. […] On day 18 (D18), the nociceptive intensity was evaluated by gentle flexion of the hindpaw and the intensity of the level of vocalization was recorded for each animal. […]

Assay [2] addresses LIF (Homo sapiens, UniProt P15018). Nature of the assay: Mouse E17 nodose neuron survival assay, LIF. The format is cell-based. Particulars: LIF 2.5 nM; antibody up to 200 nM; 48 hours. The protocol: The ability of antibody E3 to specifically block NGF activity was also evaluated by measurement of the capacity of the antibody to inhibit survival of mouse nodose E17 neurons in the presence of saturating concentrations of BDNF or NT4/5. Survival of nodose neurons is supported by BDNF or NT4/5; therefore, survival of these neurons is a sensitive assay to evaluate the BDNF or NT4/5-blocking ability of the anti-NGF antagonist antibody.
The survival assay was conducted as follows: time mated pregnant Swiss Webster female mice were euthanised by CO2 inhalation. The uterine horns were removed and the embryos (at embryonic day 17 or 18) were extracted and decapitated. The trigeminal and nodose ganglia were dissected and cleaned. The ganglia were then trypsinised, mechanically dissociated and plated at a density of 100-300 cells per well in defined, serum-free medium in 4-well plates (Greiner) coated with poly-L-ornithine and laminin.
E17 nodose neurons were grown either in the absence of added neurotrophic factors (negative control), or with saturating concentrations of BDNF (400 pM) (positive control) or NT4/5 (400 pM) or NGF unrelated growth factor […]. High concentrations of neurotrophins were used, as the goal of this experiment was to test specificity of the antibodies. […]

Sequence of LIF (P15018 23-202, species assumed): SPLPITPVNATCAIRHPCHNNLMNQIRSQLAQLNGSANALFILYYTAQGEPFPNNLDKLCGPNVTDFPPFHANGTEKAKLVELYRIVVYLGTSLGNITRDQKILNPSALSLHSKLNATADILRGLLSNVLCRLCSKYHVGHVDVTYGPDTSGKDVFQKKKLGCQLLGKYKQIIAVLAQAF

Consider `COc1ccc2c(c1)c(CC(=O)O)c(C)n2C(=O)c1ccc(Cl)cc1` [Indomethacin, reference compound], for which the Nociceptive intensity in assay [1] (10 mg/kg orally at D18, measured one hour after dosing) is given as 145.8 ± 29.9 mV. The “% variation of nociceptive intensity vs vehicle-treated group” value in assay [1] (10 mg/kg orally at D18, one hour after dosing) was −85%.

B1: E3: humanized, affinity matured anti-NGF antagonist antibody; variable regions SEQ ID NO:1 and 2; human IgG2a (A330P331 to S330S331), kappa (antibody, V domains shown)
VH: QVQLQESGPGLVKPSETLSLTCTVSGFSLIGYDLNWIRQPPGKGLEWIGIIWGDGTTDYNSAVKSRVTISKDTSKNQFSLKLSSVTAADTAVYYCARGGYWYATSYYFDYWGQGTLVTVS
VL: DIQMTQSPSSLSASVGDRVTITCRASQSISNNLNWYQQKPGKAPKLLIYYTSRFHSGVPSRFSGSGSGTDFTFTISSLQPEDIATYYCQQEHTLPYTFGQGTKLEIKRT
modifications: human IgG2a constant (A330S/P331S) and kappa constant missing
As to B1, the “survival of E17 nodose neurons promoted by LIF” value in assay [2] is given as “had no effect; also recorded: did not inhibit”.
